Converted amounts (≈) assume the structure as drawn. The source made the active and inactive calls. The calls are words filed in the database; no cut-off is given here.
How the values were obtained:
Bacillus subtilis [1] = experiment: Antibacterial activity against Bacillus subtilis BR151 after 24 hrs by broth micro-dilution method; type: functional; details: BR151, 24 h
Escherichia coli [2] = experiment: Antibacterial activity against Escherichia coli JM109 after 24 hrs by broth micro-dilution method; type: functional; details: JM109, 24 h
Enterococcus faecalis = experiment: Antibacterial activity against vancomycin-resistant Enterococcus faecalis ATCC 700802 after 24 hrs by broth micro-dilution method; type: functional; details: ATCC 700802, 24 h
Pseudomonas aeruginosa = experiment: Antibacterial activity against multidrug-resistant Pseudomonas aeruginosa ATCC 27853 after 24 hrs by broth micro-dilution method; type: functional; details: ATCC 27853, 24 h
Staphylococcus aureus [3] = experiment: Antibacterial activity against methicillin-resistant Staphylococcus aureus ATCC 33592 assessed as lipid membrane depolarization after 10 mins by DiSC3-5 staining-based fluorescence analysis; type: functional, organism-based
Staphylococcus aureus [4] = experiment: Antibacterial activity against methicillin-resistant Staphylococcus aureus ATCC 33592 after 24 hrs by broth micro-dilution method; type: functional; details: ATCC 33592, 24 h
[5] = Selectivity ratio of HC50 for human RBC to MIC for methicillin-resistant Staphylococcus aureus ATCC 33592; type: functional
Candida albicans = experiment: Antifungal activity against Candida albicans ATCC 10231 after 48 hrs by broth micro-dilution method; type: functional; details: ATCC 10231, 48 h
Klebsiella pneumoniae = experiment: Antibacterial activity against Klebsiella pneumoniae ATCC 13383 after 24 hrs by broth micro-dilution method; type: functional; details: ATCC 13383, 24 h
[6] = system: Staphylococcus epidermidis; experiment: Antibacterial activity against multidrug-resistant Staphylococcus epidermidis RP62A after 24 hrs by broth micro-dilution method; type: functional
[7] = Toxicity in human RBC assessed as hemolysis after 1 hr; type: cell-based, Erythrocyte; details: for HC10: erythrocyte, 1 h; for HC50 at 1 h: red blood cells
Bacillus subtilis [8] = experiment: Antibacterial activity against Bacillus subtilis BR151 assessed as loss membrane potential at 10 ug/ml; type: functional, organism-based
Escherichia coli [9] = experiment: Antibacterial activity against Escherichia coli JM109 assessed as membrane disruption at 10 ug/ml after 2 hrs by DAPI staining-based fluorescence microscopic analysis; type: functional, organism-based
Staphylococcus aureus [10] = experiment: Antibacterial activity against methicillin-resistant Staphylococcus aureus ATCC 33592 grown on half-MIC concentration for 17 passages measured after 17 days by broth-microdilution method; type: functional, organism-based
[11] = Selectivity for Klebsiella pneumoniae ATCC 13383 over mouse N2A cells expressing amyloid precursor protein
N2a [12] = experiment: Toxicity against mouse N2A cells expressing amyloid precursor protein up to 50 ug/ml after 36 hrs by MTT assay; type: cell-based
Escherichia coli [13] = experiment: Antibacterial activity against Escherichia coli JM109 assessed as membrane disruption at 10 ug/ml after 2 hrs by propidium iodide staining-based fluorescence microscopic analysis; type: functional, organism-based
Bacillus subtilis [14] = experiment: Antibacterial activity against Bacillus subtilis BR151 assessed as membrane disruption at 10 ug/ml after 2 hrs by propidium iodide staining-based fluorescence microscopic analysis; type: functional, organism-based
Bacillus subtilis [15] = experiment: Antibacterial activity against Bacillus subtilis BR151 assessed as membrane disruption at 10 ug/ml after 2 hrs by DAPI staining-based fluorescence microscopic analysis; type: functional, organism-based
[16] = Selectivity for Escherichia coli JM109 over mouse N2A cells expressing amyloid precursor protein
N2a [17] = experiment: Toxicity against mouse N2A cells expressing amyloid precursor protein up to 100 ug/ml after 36 hrs by MTT assay; type: cell-based
[18] = Selectivity for Bacillus subtilis BR151 over mouse N2A cells expressing amyloid precursor protein
Escherichia coli [19] = experiment: Antibacterial activity against Escherichia coli JM109 assessed as loss membrane potential at 10 ug/ml; type: functional, organism-based

SMILES	MIC (Bacillus subtilis [1])	MIC (Escherichia coli [2])	MIC (Enterococcus faecalis)	MIC (Pseudomonas aeruginosa)	Activity (Staphylococcus aureus [3])	MIC (Staphylococcus aureus [4])	Ratio [5]	MIC (Candida albicans)	MIC (Klebsiella pneumoniae)	MIC [6]	HC10 [7]	HC50 at 1 h [7]	also measured
CCCCCCCC/C=C\CCCCCCCC(=O)N[C@@H](CCCCN)CN(CC(=O)N[C@@H](CCCCN)CN(CC(N)=O)C(=O)CCCN)C(=O)CCCN	2.5 µg/mL (≈ 3.15 µM)	10 µg/mL (≈ 12.6 µM)	5 µg/mL (≈ 6.3 µM)	3 µg/mL (≈ 3.78 µM)	Active	5 µg/mL (≈ 6.3 µM)	> 100	2 µg/mL (≈ 2.52 µM)	15 µg/mL (≈ 18.9 µM)	4 µg/mL (≈ 5.04 µM)	250 µg/mL	> 500 µg/mL	
CCCCCCCC/C=C\CCCCCCCC(=O)N[C@@H](CCCCN)C(=O)N[C@@H](CCCCN)CN(CC(N)=O)C(=O)CCCN	2 µg/mL (≈ 3 µM)	10 µg/mL (≈ 15 µM)	2.5 µg/mL (≈ 3.75 µM)	15 µg/mL (≈ 22.5 µM)	Active	5 µg/mL (≈ 7.51 µM)	> 100	5 µg/mL (≈ 7.51 µM)	40 µg/mL (≈ 60.1 µM)	2 µg/mL (≈ 3 µM)	80 µg/mL	> 500 µg/mL	
CC(=O)N(CC(=O)N[C@@H](C)CN(CC(=O)N[C@@H](CC(C)C)CN(CC(=O)N[C@@H](CC(C)C)CN(CC(=O)N[C@@H](CC(C)C)CN(CC(N)=O)C(=O)CCCN)C(=O)CCCN)C(=O)CCCN)C(C)=O)C[C@H](C)N	> 100 µg/mL	> 100 µg/mL	> 100 µg/mL	> 100 µg/mL		> 100 µg/mL		> 100 µg/mL	> 100 µg/mL	> 100 µg/mL	120 µg/mL	> 500 µg/mL	
CCCCCCCCCCCCCCCC(=O)N[C@@H](C)CN(CC(=O)N[C@@H](C)CN(CC(=O)N[C@@H](Cc1ccccc1)CN(CC(=O)N[C@@H](Cc1ccccc1)CN(CC(=O)N[C@@H](Cc1ccccc1)CN(CC(N)=O)C(=O)CC(=O)O)C(=O)CC(=O)O)C(=O)CC(=O)O)C(C)=O)C(C)=O	> 100 µg/mL	> 100 µg/mL	> 100 µg/mL	> 100 µg/mL		> 100 µg/mL		> 100 µg/mL	> 100 µg/mL	> 100 µg/mL	200 µg/mL	> 500 µg/mL	
CCCCCCCCCCCCCCCC(=O)N[C@@H](C)CN(CC(=O)N[C@@H](C)CN(CC(=O)N[C@@H](CC(C)C)CN(CC(=O)N[C@@H](CC(C)C)CN(CC(=O)N[C@@H](CC(C)C)CN(CC(N)=O)C(=O)CCCN)C(=O)CCCN)C(=O)CCCN)C(C)=O)C(C)=O	2.5 µg/mL (≈ 1.94 µM)	2.5 µg/mL (≈ 1.94 µM)	5 µg/mL (≈ 3.87 µM)	5 µg/mL (≈ 3.87 µM)	Active	4 µg/mL (≈ 3.1 µM)	> 125	5 µg/mL (≈ 3.87 µM)	5 µg/mL (≈ 3.87 µM)	4 µg/mL (≈ 3.1 µM)	60 µg/mL	> 500 µg/mL	Activity (Bacillus subtilis [8]): Active; Activity (Escherichia coli [9]): Active; Activity (Staphylococcus aureus [10]): Active; Ratio [11]: 10; Activity (N2a [12]): Non-toxic; Activity (Escherichia coli [13]): Active; Activity (Bacillus subtilis [14]): Active; Activity (Bacillus subtilis [15]): Active; Ratio [16]: 10; Activity (N2a [17]): 50%; Ratio [18]: 10; Activity (Escherichia coli [19]): Active
CCCCCCCC/C=C\CCCCCCCC(=O)N[C@@H](CCCCN)CN(CC(N)=O)C(=O)CCCN	2 µg/mL (≈ 3.72 µM)	2.5 µg/mL (≈ 4.65 µM)	2.5 µg/mL (≈ 4.65 µM)	3 µg/mL (≈ 5.58 µM)	Active	4 µg/mL (≈ 7.44 µM)	25	2 µg/mL (≈ 3.72 µM)	35 µg/mL (≈ 65.1 µM)	2 µg/mL (≈ 3.72 µM)	40 µg/mL	100 µg/mL	
CCCCCCCCCCCCCCCC(=O)N[C@@H](CCCCN)CN(CC(=O)N[C@@H](CCCCN)CN(CC(=O)N[C@@H](CCCCN)CN(CC(N)=O)C(=O)CCCN)C(=O)CCCN)C(=O)CCCN	1.5 µg/mL (≈ 1.46 µM)	20 µg/mL (≈ 19.5 µM)	10 µg/mL (≈ 9.76 µM)	15 µg/mL (≈ 14.6 µM)	Active	5 µg/mL (≈ 4.88 µM)	> 100	2 µg/mL (≈ 1.95 µM)	> 50 µg/mL	2 µg/mL (≈ 1.95 µM)	300 µg/mL	> 500 µg/mL	

Source: ChEMBL document CHEMBL2046294, “Lipo-γ-AApeptides as a new class of potent and broad-spectrum antimicrobial agents” (J Med Chem, 2012)
